The nature of data set [1]: Sedimentation stability and color fastness of tinted varnish. Type of data set: physicochemical. The note with it: 0.1% by weight in the varnish; one month at 45° C.
Protocol: Various cosmetic compositions in the form of nail varnish of the organic-solvent-based varnish type were prepared and applied to nails. […] The color of the varnish is then compared to a reference varnish not containing any hardening agent. • Sedimentation stability: A tinted varnish composition containing pearlescent agent and a coloring solution is prepared and is placed in an oven for 1 month at 45° C. A visual observation is made to check whether the pearlescent agent has or has not sedimented out. • Shade stability: A tinted varnish containing a mixture of the following pigments: titanium dioxide, Red 34 and ferric ferrocyanide blue, is placed in an oven at 45° C. for 30 days.
firstly, a pearlescent agent: titanium oxide-coated mica sold under the name Flamenco Gold, 6-48 μm, by BASF,
and, secondly, Pigment Red 34: organic pigment sold by Sun Chemical.
This pigment was ground in order to be able to be incorporated. The grinding procedure included mixing the solvents with the pigment, stirring to deagglomerate the pigment, then incorporating the nitrocellulose. Once the latter had dissolved, the plasticizer was incorporated with stirring, which was continued for 20 minutes. […]
Titanium oxide-coated mica (Flamenco Gold, 6-48 μm, from BASF) 2% by weight The stability of the compositions thus prepared was evaluated by visual observation after storage for one month at 45° C.
Data set [2] in a line: Viscosity, Brookfield viscometer. Type of data set: physicochemical. Particulars: concentrations of less than 1% by weight. The procedure:
(§1) Various cosmetic compositions in the form of nail varnish of the organic-solvent-based varnish type were prepared and applied to nails. The tests hereinafter were performed on these varnishes: • Gloss: 100 μm of varnish was applied to a Leneta-type panel. After drying, the gloss was measured at an angle of incidence of 60° using a Minolta 268 glossmeter. • Flexibility: An aluminum plate covered with a varnish of 300 μm wet is subjected to a slow stamping and the depth of the penetration is measured (ISO1520). • Varnish hardness: It was measured using a Persoz pendulum on a glass plate covered with a varnish with a thickness of 100 μm wet, after drying at room temperature, according to the ISO1522 standard. • Adhesion: A “cross hatch test” is carried out on a glass plate. A score of 0 corresponds to an absence of loss of adhesion. A score of 5 corresponds to a total loss of adhesion. • Solids content: Between 0.5 and 1 g of varnish is poured into a dish. […] The stability of this shade, and more specifically the appearance or not of any syneresis, is observed. • Odor: The odor of the varnish is compared to that of a varnish not containing any hardening agent. • Viscosity: The viscosity of the product is measured at 25° C. using a Brookfield viscometer. […]

Data set [3] is classed as physicochemical. The procedure: as §1
The subject of a further data set is nails of the hand. Briefly: In vivo test of nail hardening on panels of 30 persons. Set-up: species or system human. Particulars: 0.05% by weight in the varnish composition, three weeks. An excerpt: The varnish was applied under normal conditions of use (namely one application every three days, after having removed the previous varnish). Comparative composition 5 contained 0.05% of hexane, comparative composition 6 contained 0.05% by weight of citral, comparative composition 9 contained 0.05% by weight of caproic acid and composition 7 according to the present invention contained 0.05% by weight of sorbic acid. […] The respective compositions and also the results of the physical tests and observed by the panelists are collated in table 2 hereinafter.

Structures are written as SMILES.

For the molecule `O=P(O)(O)O` [Phosphoric acid], the “discoloration of the shade” value in data set [1] was “discolors the Pigment Red 34”.

Consider `C/C=C/C=C/C(=O)O` [sorbic acid], for which the “influence on the viscosity of the varnish composition” value in data set [2] is reported as “does not have any influence”. In data set [3], the “influence on the stability of the varnish composition” value is given as “does not have any influence” and the “maximum amount that can be incorporated into the varnish without causing yellowing” value was “less than 1 % by weight”. The “subjects who found an overall improvement in the quality and the hardness of their nails” value in the data set with nails of the hand was “more than 83%”.

For the origin of these results see US20210236412A1, “COSMETIC COMPOSITION OF NON-AQUEOUS THIXOTROPIC NAIL VARNISH CONTAINING A NAIL-HARDENING AGENT, USE AND IMPLEMENTATION METHOD” (FIABILA, priority 2018, published 2021).
